Test results taken from patent publication US5661153A, “1-arylpyrimidine derivatives and pharmaceutical use thereof” (Japan Energy Corporation, priority 1994, dated 1997).

Assays:
[1] = test system: passive cutaneous anaphylaxis (PCA) reaction; test: Inhibiting effect on a 48 hour PCA reaction (test method for compound prepared in Example 22); assay type: in vivo, male Wistar strain rats; details: 100 mg/kg orally 30 minutes before the induction; dye leakage
Procedure: (§1) Eight-weeks old male Wistar strain rats were immunized by subcutaneously injecting 0.1 ml of 700-fold diluted DNP-Ascaris antiserum (titer=1:1024) at two positions on the dorsum. Forty-eight hours after the immunization, 1 ml of a 0.5% Evans blue solution containing 1 mg of DNP-Ascaris antigen was administered into a pedal vein to induce a PCA reaction. Thirty minutes after the induction, the rats were bled to death and blue circular parts appearing at the immunized positions were excised. The dye was extracted from the blue circular parts with ethyl acetate and the amount of the dye leakage was determined. A test substance was suspended in a 0.5% CMC-Na solution and administered orally to each rat at a dose of 100 mg/kg 30 minutes before the induction.
(§2) Using a reference group to which only a 0.5% CMC-Na solution was administered orally, a reference value for the amount of dye leakage was obtained. The percent inhibition was determined as 100% when the amount of dye leakage was zero and as 0% when the amount of dye leakage was equal to the reference value. On the basis of these criteria, the percent inhibition of each test substance was calculated at varying doses.

[2] = test system: passive cutaneous anaphylaxis (PCA) reaction; test: Inhibiting effect on a 48 hour PCA reaction (test method for compound prepared in Example 1); assay type: in vivo, male Wistar strain rats; details: 100 mg/kg orally 1 hour before the induction; dye leakage
Procedure: as §1, with “0.05” for “0.1”, “50-fold” for “700-fold”, “(titer=1:64)” for “(titer=1:1024)”, “four” for “two”, “tail” for “pedal”, “1 hour” for “at a dose of 100 mg/kg 30 minutes”
as §2

COc1ccc(/C=C/C(=O)Nc2ccccc2C(=O)O)cc1OC [Tranilast, tranilast, reference compound]
Percent Inhibition [1]: 35% | Percent Inhibition [2]: 66%
